Reference: patent US20250295795A1, “PEPTIDE” (priority 2021, published 2025)
Entries after “also recorded” stand apart in the source; their conditions may differ.

Legend:
[1] = MTT assay of metabolic activity (cell viability); type: cell-based; conditions: human, HeLa cells, 1 μM for 60 min
Protocol: Toxicity is a concern with potent intracellular delivery agents. We used an MTT assay to measure the metabolic activity of Hela cells treated with 1 μM tri-Tat A or tri-cTat B for 60 min (FIG. 4d). […] Tri-Tat A is slightly more toxic, which is consistent with the observation that the trimer forms membrane pores (cells 84.4% viable, 4 h post-treatment; 80.2% viable, 3 days post-treatment). The favourable uptake mechanism and low toxicity of tri-cTat B lead us to investigate this agent for its potential to transport biomacromolecular cargos into cells.

[2] = system: CHO cells; assay: Live cell confocal microscopy: cellular uptake and intracellular distribution of Tat conjugates in CHO cells; type: cell-based, Chinese hamster; conditions: 1 μM, 60 min, serum-free DMEM, post-wash
Protocol: The cellular uptake and intracellular distribution of Tat-trimers and monomeric controls was investigated by performing live cell confocal microscopy of HeLa (human, cervical cancer) and CHO (Chinese hamster, epithelial) cells incubated with Tat conjugates (1 μM) in serum-free DMEM (60 min). Following washing, images were acquired using a Zeiss 780 confocal microscope fitted with an incubation chamber (FIG. 2). In accordance with observations that free Tat in the cytosol readily enters the nucleus and strongly binds to nucleoli,^29 homogenous staining of cytoplasm and nucleoli were considered as indicative of cells having accumulated free conjugate, not confined to endosomes, for quantification purposes. […] The uptake and intracellular distribution of tri-Tat A is similar in live Hela and CHO cells (FIG. 2b,d,e).
HeLa and CHO cells were cultured in DMEM supplemented with 10% FBS and penicillin/streptomycin. For post-wash experiments, Tat conjugate was added to the cells in serum free medium, cells incubated at 37° C. in an atmosphere of 5% CO2, culture medium removed at the desired time point, cells washed and transferred to the microscope for imaging. For time course or pre-wash experiments, cells were transferred to the microscope (incubation chamber at 37° C., 5% CO2) and Tat conjugate added directly to cell medium and cells imaged at desired time points. Co-delivery experiments were conducted by adding peptide trimer immediately followed by cargo into serum free medium. Samples were visualised using a Zeiss LSM 780 inverted confocal microscope fitted with a XLmultiS1 incubation chamber and Plan-Apochromat 63×/1.40 Oil DIC M27 objective. Images were analysed using ImageJ software. Digital adjustments and image processing are consistent throughout the manuscript, unless otherwise stated in the figure legend. Statistical analysis was carried out using GraphPad Prism 7 software and all data used for statistical analysis consists of measurements from distinct cells. Where applicable a parametric, unpaired, two-tailed t-test was used for statistical testing.

[3] = system: HeLa cells; assay: Membrane integrity / porosity: propidium iodide uptake after trimer treatment; type: cell-based, human; conditions: 1 μM trimer; 40 μM PI added 20 min after trimer
Protocol: To assess membrane integrity, 40 μM propidium iodide (PI; a cell impermeable dye), was added to Hela cells 20 min after the addition of the peptide trimer.

SMILES: N=C(N)NCCC[C@@H]1NC(=O)[C@H](CCCNC(=N)N)NC(=O)[C@H](CCCNC(=N)N)NC(=O)[C@H](CCC(N)=O)NC(=O)[C@H](CCCNC(=N)N)NC(=O)[C@H](CCCNC(=N)N)NC(=O)[C@H](CCCCN)NC(=O)[C@H](CCCCN)NC(=O)[C@H](CCCNC(=N)N)NC(=O)[C@H](CCCCn2cc(COCC(COCc3cn(CCCCCCNC(=O)c4ccc5c(c4)C(=O)OC54c5ccc(N)c(S(=O)(=O)O)c5Oc5c4ccc(N)c5S(=O)(=O)O)nn3)(COCc3cn(CCCC[C@@H]4NC(=O)CC[C@@H](C(N)=O)NC(=O)[C@H](CCCNC(=N)N)NC(=O)[C@H](CCCNC(=N)N)NC(=O)[C@H](CCCNC(=N)N)NC(=O)[C@H](CCC(N)=O)NC(=O)[C@H](CCCNC(=N)N)NC(=O)[C@H](CCCNC(=N)N)NC(=O)[C@H](CCCCN)NC(=O)[C@H](CCCCN)NC(=O)[C@H](CCCNC(=N)N)NC4=O)nn3)COCc3cn(CCCC[C@@H]4NC(=O)CC[C@@H](C(N)=O)NC(=O)[C@H](CCCNC(=N)N)NC(=O)[C@H](CCCNC(=N)N)NC(=O)[C@H](CCCNC(=N)N)NC(=O)[C@H](CCC(N)=O)NC(=O)[C@H](CCCNC(=N)N)NC(=O)[C@H](CCCNC(=N)N)NC(=O)[C@H](CCCCN)NC(=O)[C@H](CCCCN)NC(=O)[C@H](CCCNC(=N)N)NC4=O)nn3)nn2)NC(=O)CC[C@@H](C(N)=O)NC1=O (stereo partly shown) [tri-cTat B]
- viability at 4 h, 1 µM ([1]; 4 h post-treatment): 94.3%
- viability at 72 h, 1 µM ([1]; 3 days post-treatment): 96.5%
- cellular uptake and intracellular distribution [2]: taken up into the cytosol and nucleoli
- propidium iodide (PI) uptake / pore formation [3]: does not form pores in the plasma membrane; also recorded: PI negative
